Measured values: PubChem BioAssay AID248 (DTP/NCI, 2004)
Several values for one entry are separate records, joined by “and”; a condition that tells them apart may be missing. Equal entries are not always repeated. Toxic doses and inconclusive results are not listed. Rule as the data show it: active = T/C of 150% or more; inactive = T/C below 125%.

System: L1210 leukemia ip in BDF1 mice, survival T/C
Assay: NCI In Vivo Anticancer Drug Screen. Data for tumor model L1210 Leukemia (intraperitoneal) in B6D2F1 (BDF1) mice
Settings: endpoint: mean survival time, higher = longer survival
Procedure, shortened: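 Survival endpoint. Drug-treated group vs vehicle group, expressed as T divided by C. Tumor passaged by transplantation.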

[1] = dose: 100.0 mg/kg/injection, schedule: Q04DX002 (ip), vehicle: Klucel (hydroxypropylcellulose) (HPC)
[2] = dose: 200.0 mg/kg/injection, schedule: Q04DX002 (ip), vehicle: Klucel (hydroxypropylcellulose) (HPC)
[3] = dose: 400.0 mg/kg/injection, schedule: Q04DX002 (ip), vehicle: Klucel (hydroxypropylcellulose) (HPC)
[4] = dose: 100.0 mg/kg/injection, schedule: Q01DX001 (ip), vehicle: saline
[5] = dose: 100.0 mg/kg/injection, schedule: Q01DX009 (ip), vehicle: saline with Tween-80
[6] = dose: 100.0 mg/kg/injection, schedule: Q04DX002 (ip), vehicle: saline with Tween-80
[7] = dose: 200.0 mg/kg/injection, schedule: Q01DX009 (ip), vehicle: saline with Tween-80
[8] = dose: 400.0 mg/kg/injection, schedule: Q01DX009 (ip), vehicle: saline with Tween-80
[9] = dose: 400.0 mg/kg/injection, schedule: Q04DX002 (ip), vehicle: saline with Tween-80
[10] = dose: 100.0 mg/kg/injection, schedule: Q01DX001 (ip), vehicle: Klucel (hydroxypropylcellulose) (HPC)
[11] = dose: 200.0 mg/kg/injection, schedule: Q01DX001 (ip), vehicle: Klucel (hydroxypropylcellulose) (HPC)
[12] = dose: 400.0 mg/kg/injection, schedule: Q01DX001 (ip), vehicle: Klucel (hydroxypropylcellulose) (HPC)
[13] = dose: 200.0 mg/kg/injection, schedule: Q01DX001 (ip), vehicle: saline
[14] = dose: 400.0 mg/kg/injection, schedule: Q01DX001 (ip), vehicle: saline
[15] = dose: 100.0 mg/kg/injection, schedule: Q04DX003 (ip), vehicle: saline with Tween-80
[16] = dose: 200.0 mg/kg/injection, schedule: Q04DX003 (ip), vehicle: saline with Tween-80
[17] = dose: 400.0 mg/kg/injection, schedule: Q04DX003 (ip), vehicle: saline with Tween-80
[18] = dose: 100.0 mg/kg/injection, schedule: Q01DX009 (ip), vehicle: Klucel (hydroxypropylcellulose) (HPC)
[19] = dose: 100.0 mg/kg/injection, schedule: Q04DX003 (ip), vehicle: Klucel (hydroxypropylcellulose) (HPC)
[20] = dose: 200.0 mg/kg/injection, schedule: Q01DX009 (ip), vehicle: Klucel (hydroxypropylcellulose) (HPC)
[21] = dose: 200.0 mg/kg/injection, schedule: Q04DX003 (ip), vehicle: Klucel (hydroxypropylcellulose) (HPC)
[22] = dose: 400.0 mg/kg/injection, schedule: Q01DX009 (ip), vehicle: Klucel (hydroxypropylcellulose) (HPC)
[23] = dose: 400.0 mg/kg/injection, schedule: Q04DX003 (ip), vehicle: Klucel (hydroxypropylcellulose) (HPC)
[24] = dose: 100.0 mg/kg/injection, schedule: Q04DX003 (ip), vehicle: saline
[25] = dose: 200.0 mg/kg/injection, schedule: Q04DX003 (ip), vehicle: saline

Measured: T/C

C1=NC(c2ccccc2)=CN(C2CCCC2)C1(c1ccccc1)C1CCCC1 (configuration not stated)
inactive: dose: 50.0 mg/kg/injection, schedule: Q04DX002 (ip), vehicle: saline 105 % of control | [1] 98 % of control | dose: 100.0 mg/kg/injection, schedule: Q04DX002 (ip), vehicle: saline 108 % of control | [2] 98 % of control | dose: 200.0 mg/kg/injection, schedule: Q04DX002 (ip), vehicle: saline 108 % of control | [3] 109 % of control

Cc1c2cccc(Sc3ccccc3)c2c2c3c(cccc13)[S+](c1ccccc1)C2 (configuration not stated)
inactive: dose: 1.56 mg/kg/injection, schedule: Q01DX009 (ip), vehicle: saline 104 % of control | dose: 3.12 mg/kg/injection, schedule: Q01DX009 (ip), vehicle: saline 101 % of control | dose: 6.25 mg/kg/injection, schedule: Q01DX009 (ip), vehicle: saline 105 % of control | dose: 12.5 mg/kg/injection, schedule: Q01DX001 (ip), vehicle: saline with Tween-80 97 % of control | dose: 12.5 mg/kg/injection, schedule: Q01DX001 (ip), vehicle: saline 100 % of control | dose: 12.5 mg/kg/injection, schedule: Q01DX009 (ip), vehicle: saline 91 % of control | dose: 25.0 mg/kg/injection, schedule: Q01DX001 (ip), vehicle: saline 93 % of control | dose: 50.0 mg/kg/injection, schedule: Q01DX001 (ip), vehicle: saline with Tween-80 95 % of control | dose: 50.0 mg/kg/injection, schedule: Q01DX001 (ip), vehicle: saline 86 % of control

Cc1nc(C(=O)NN)co1
inactive: dose: 5.0 mg/kg/injection, schedule: Q01DX001 (ip), vehicle: saline 106 % of control | dose: 10.0 mg/kg/injection, schedule: Q01DX001 (ip), vehicle: saline 110 % of control | dose: 20.0 mg/kg/injection, schedule: Q01DX001 (ip), vehicle: saline 101 % of control | dose: 40.0 mg/kg/injection, schedule: Q01DX001 (ip), vehicle: saline 101 % of control | dose: 80.0 mg/kg/injection, schedule: Q01DX001 (ip), vehicle: saline 104 % of control | [4] 98 % of control

CCOC(=O)c1ccc(NC(=O)Oc2ccc(-c3ccccc3)cc2)cc1
inactive: dose: 100.0 mg/kg/injection, schedule: Q01DX001 (ip), vehicle: saline with Tween-80 96 % of control | [5] 97 % of control and 102 % of control | [6] 94 % of control and 100 % of control | dose: 200.0 mg/kg/injection, schedule: Q01DX001 (ip), vehicle: saline with Tween-80 88 % of control | [7] 92 % of control and 97 % of control | dose: 200.0 mg/kg/injection, schedule: Q04DX002 (ip), vehicle: saline with Tween-80 101 % of control and 88 % of control | dose: 400.0 mg/kg/injection, schedule: Q01DX001 (ip), vehicle: saline with Tween-80 96 % of control | [8] 93 % of control and 100 % of control | [9] 97 % of control

Cc1ccc(N)cc1[N+](=O)[O-]
inactive: [10] 105 % of control | [11] 95 % of control | [12] 95 % of control

NC(=O)N/N=C(\CBr)c1ccc(Br)cc1
inactive: dose: 100.0 mg/kg/injection, schedule: Q01DX009 (ip), vehicle: saline 93 % of control

O=C(Nc1ccc([N+](=O)[O-])cc1)c1cc(N2CCCC2)ccn1
inactive: [4] 100 % of control | [13] 96 % of control | [14] 100 % of control

OC1c2cc(Br)ccc2-c2c(F)cc(Br)cc21 (configuration not stated)
inactive: dose: 100.0 mg/kg/injection, schedule: Q01DX001 (ip), vehicle: carboxymethylcellulose (CMC) 100 % of control | dose: 200.0 mg/kg/injection, schedule: Q01DX001 (ip), vehicle: carboxymethylcellulose (CMC) 109 % of control | dose: 400.0 mg/kg/injection, schedule: Q01DX001 (ip), vehicle: carboxymethylcellulose (CMC) 103 % of control

C=CC(=O)NC12CC3CC(CC(C3)C1)C2
inactive: [4] 88 % of control | [5] 104 % of control | [13] 93 % of control | [7] 97 % of control | [14] 90 % of control | [8] 101 % of control

CC(=O)Oc1c2ccccc2c(OC(C)=O)c2cc(/C=C/C(=O)O)ccc12
inactive: [15] 95 % of control | [16] 90 % of control | [17] 88 % of control

CC(=O)Nc1cc2c(cc1[N+](=O)[O-])-c1ccc([N+](=O)[O-])cc1C2
inactive: [18] 95 % of control | [19] 93 % of control | [20] 89 % of control | [21] 91 % of control | [22] 94 % of control | [23] 94 % of control

COc1ccc(F)cc1CC(=O)O
inactive: [1] 102 % of control and 105 % of control | [2] 98 % of control and 105 % of control | [3] 91 % of control and 96 % of control

O=C(Nc1cc([N+](=O)[O-])ccc1O)c1ccc(Cl)c(Cl)c1
inactive: [18] 104 % of control | [20] 95 % of control | [22] 93 % of control

Nc1ncnc(N)c1NC(=O)c1cccnc1
inactive: [24] 92 % of control | [25] 96 % of control | dose: 400.0 mg/kg/injection, schedule: Q04DX003 (ip), vehicle: saline 100 % of control

Nc1ccc(OCc2nc(N)nc(N)c2-c2ccc(Cl)cc2)cc1
inactive: [10] 102 % of control | [11] 105 % of control | [12] 96 % of control

COC(=O)CCSCCC(=O)OC
inactive: [18] 105 % of control | [19] 103 % of control | [20] 97 % of control | [21] 101 % of control | [22] 95 % of control | [23] 105 % of control

COC(=O)C1C2C=CC(C3CCC23)C1C(=O)OC (configuration not stated)
inactive: [15] 92 % of control | [16] 91 % of control | [17] 94 % of control

C[N+](C)(C)CC#N
inactive: [24] 95 % of control | [25] 95 % of control

CC(C)P(=O)(CC(=O)O)c1ccccc1 (configuration not stated)
inactive: [6] 100 % of control | [9] 97 % of control

CCN(CC)CC(O)c1ccnc2c(N)cc(OC)cc12 (configuration not stated)
inactive: dose: 75.0 mg/kg/injection, schedule: Q01DX001 (ip), vehicle: acetone 104 % of control | dose: 150.0 mg/kg/injection, schedule: Q01DX001 (ip), vehicle: acetone 101 % of control

CCC(O)(CC(=O)O)c1ccccc1 (configuration not stated)
inactive: [5] 91 % of control | [15] 104 % of control | [7] 96 % of control | [16] 104 % of control | [17] 105 % of control
